The record followed here is patent US20240208992A1, “MACROCYCLES AS CFTR MODULATORS” (Idorsia Pharmaceuticals Ltd, priority 2021, published 2024).

The target of this experiment is human F508del-CFTR (Homo sapiens, UniProt P13569, DEL508-508). As to the kind of experiment: F508del-CFTR cell surface expression (corrector activity), DiscoveRx ß-galactosidase complementation chemiluminescence assay in recombinant U2OS cell line.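 As to all read-outs here: U2OS cells co-expressing ProLink-tagged F508del-CFTR and a membrane-anchored enzyme acceptor, where more surface CFTR restores β-galactosidase activity measured by chemiluminescence.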 The following applies: for EC50: EC50, F508del-CFTR cell surface expression, U2OS cells, 16h compound incubation, geomean values; for Emax: U2OS, in relation to Emax of corrector lumacaftor (=100%), arithmetic mean values.
Sequence of human F508del-CFTR (P13569 with tags, fused parts or gaps DEL508-508): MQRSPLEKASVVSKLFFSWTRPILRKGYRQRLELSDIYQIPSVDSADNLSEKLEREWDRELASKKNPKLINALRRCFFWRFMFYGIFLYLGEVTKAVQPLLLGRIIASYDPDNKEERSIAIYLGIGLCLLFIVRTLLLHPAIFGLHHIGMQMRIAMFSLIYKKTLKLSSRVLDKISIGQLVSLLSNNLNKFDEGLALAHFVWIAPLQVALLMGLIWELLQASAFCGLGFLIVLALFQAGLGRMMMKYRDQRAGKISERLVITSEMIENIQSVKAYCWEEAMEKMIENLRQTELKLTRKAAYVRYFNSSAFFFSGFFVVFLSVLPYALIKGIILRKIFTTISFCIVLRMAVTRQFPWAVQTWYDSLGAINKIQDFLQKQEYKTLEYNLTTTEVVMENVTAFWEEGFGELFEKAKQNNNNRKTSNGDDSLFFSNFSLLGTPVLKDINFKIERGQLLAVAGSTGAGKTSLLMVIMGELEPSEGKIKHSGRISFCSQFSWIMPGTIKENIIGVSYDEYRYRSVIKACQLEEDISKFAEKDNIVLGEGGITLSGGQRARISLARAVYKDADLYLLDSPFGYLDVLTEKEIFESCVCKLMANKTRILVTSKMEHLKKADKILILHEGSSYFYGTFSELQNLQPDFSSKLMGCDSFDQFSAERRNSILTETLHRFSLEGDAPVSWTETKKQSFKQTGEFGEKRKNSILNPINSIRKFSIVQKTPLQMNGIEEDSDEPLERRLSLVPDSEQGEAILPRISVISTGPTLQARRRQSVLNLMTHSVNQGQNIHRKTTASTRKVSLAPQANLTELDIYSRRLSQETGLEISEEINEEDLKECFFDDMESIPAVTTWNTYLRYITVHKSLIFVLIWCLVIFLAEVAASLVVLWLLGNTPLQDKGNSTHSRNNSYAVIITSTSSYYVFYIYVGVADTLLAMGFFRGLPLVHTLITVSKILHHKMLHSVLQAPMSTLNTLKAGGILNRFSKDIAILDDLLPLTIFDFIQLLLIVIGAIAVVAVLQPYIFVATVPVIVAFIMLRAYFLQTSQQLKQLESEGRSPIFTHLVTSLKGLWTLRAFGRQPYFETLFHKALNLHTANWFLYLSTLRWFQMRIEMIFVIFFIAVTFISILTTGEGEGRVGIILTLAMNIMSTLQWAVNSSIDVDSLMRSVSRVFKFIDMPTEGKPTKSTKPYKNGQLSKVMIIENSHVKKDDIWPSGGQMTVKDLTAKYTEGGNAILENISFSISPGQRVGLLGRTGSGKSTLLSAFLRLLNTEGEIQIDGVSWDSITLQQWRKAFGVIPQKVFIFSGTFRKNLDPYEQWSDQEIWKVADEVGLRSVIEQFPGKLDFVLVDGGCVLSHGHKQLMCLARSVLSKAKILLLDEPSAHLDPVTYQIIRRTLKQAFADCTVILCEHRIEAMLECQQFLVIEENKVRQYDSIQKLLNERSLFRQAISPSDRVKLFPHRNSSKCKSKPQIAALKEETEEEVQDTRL

On to `Cc1cc(CCNC(=O)[C@@H]2CC(=O)N(C)[C@@H](CC3CCCC3)C(=O)N3CCCC[C@@H]3C(=O)N[C@H](Cc3ccccc3)COc3ccc4nc(C)oc4c3C(=O)N2)on1` [Example 436, (8S,12S,18aR,21R)-21-benzyl-12-(cyclopentylmethyl)-4,11-dimethyl-N-(2-(3-methylisoxazol-5-yl)ethyl)-6,10,13,19-tetraoxo-6,7,8,9,10,11,12,13,16,17,18,18a,19,20,21,22-hexadecahydro-15H-oxazolo[4′,5′:5,6]benzo[1,2-p]pyrido[2,1-f][1]oxa[4,7,10,14]tetraazacycloheptadecine-8-carboxamide], for which the EC50 is 458 nM and the Emax was determined as 300%.
The corresponding values for `Cc1cc(CCNC(=O)[C@@H]2CC(=O)N(C)[C@@H](CC3CCCC3)C(=O)N3CCCC[C@H]3C(=O)N[C@H](Cc3ccccc3)COc3ccc4nc(C)oc4c3C(=O)N2)on1` [Example 437, (8S,12S,18aS,21R)-21-benzyl-12-(cyclopentylmethyl)-4,11-dimethyl-N-(2-(3-methylisoxazol-5-yl)ethyl)-6,10,13,19-tetraoxo-6,7,8,9,10,11,12,13,16,17,18,18a,19,20,21,22-hexadecahydro-15H-oxazolo[4′,5′:5,6]benzo[1,2-p]pyrido[2,1-f][1]oxa[4,7,10,14]tetraazacycloheptadecine-8-carboxamide] are 844 nM and 159%.
On the same counts, the results for `COc1cccc(CCNC(=O)[C@@H]2CC(=O)N(C)[C@@H](CC(C)C)C(=O)N(C)C3(CC3)C(=O)N[C@H](Cc3ccccc3)COc3ccnc(OC)c3C(=O)N2)c1` [Example 438, (3′R,9′S,13′S)-3′-benzyl-9′-isobutyl-16′-methoxy-N-(3-methoxyphenethyl)-7′,10′-dimethyl-5′,8′,11′,15′-tetraoxo-2′,3′,4′,5′,8′,9′,10′,11′,12′,13′,14′,15′-dodecahydro-7′H-spiro[cyclopropane-1,6′-pyrido[3,4-p][1]oxa[4,7,10,14]tetraazacycloheptadecine]-13′-carboxamide] are 474 nM and 422%.
On the same counts, the results for `COc1cccc(CCNC(=O)[C@@H]2CC(=O)N(C)[C@@H](CC(C)C)C(=O)N(C)C3(CC3)C(=O)N[C@H](Cc3ccccc3)COc3cnc4c(F)cccc4c3C(=O)N2)c1` [Example 439, (3′S,7′S,13′R)-13′-benzyl-18′-fluoro-7′-isobutyl-N-(3-methoxyphenethyl)-6′,9′-dimethyl-1′,5′,8′,11′-tetraoxo-2′,3′,4′,5′,6′,7′,8′,9′,11′,12′,13′,14′-dodecahydro-1′H-spiro[cyclopropane-1,10′-[1]oxa[4,7,10,14]tetraazacycloheptadecino[17,16-c]quinoline]-3′-carboxamide] are 253 nM and 345%.
For the compound `Cc1cc(CCNC(=O)[C@@H]2CC(=O)N(C)[C@@H](CC(C)C)C(=O)N(C)C3(CC3)C(=O)N[C@H](Cc3ccccc3)COc3cnc4c(F)cccc4c3C(=O)N2)on1` [Example 440, (3′S,7′S,13′R)-13′-benzyl-18′-fluoro-7′-isobutyl-6′,9′-dimethyl-N-(2-(3-methylisoxazol-5-yl)ethyl)-1′,5′,8′,11′-tetraoxo-2′,3′,4′,5′,6′,7′,8′,9′,11′,12′,13′,14′-dodecahydro-1′H-spiro[cyclopropane-1,10′-[1]oxa[4,7,10,14]tetraazacycloheptadecino[17,16-c]quinoline]-3′-carboxamide], the EC50 is 788 nM and the Emax turned out to be 296%.
On the same counts, the results for `COc1cccc(CCNC(=O)[C@@H]2CC(=O)N(C)[C@@H](CC(C)C)C(=O)N(C)CC(=O)N[C@H](Cc3ccccc3)COc3ccc4ncccc4c3C(=O)N2)c1` [Example 441, (3S,7S,13R)-13-benzyl-7-isobutyl-N-(3-methoxyphenethyl)-6,9-dimethyl-1,5,8,11-tetraoxo-1,2,3,4,5,6,7,8,9,10,11,12,13,14-tetradecahydro-[1]oxa[4,7,10,14]tetraazacycloheptadecino[16,17-f]quinoline-3-carboxamide] are 815 nM and 326%.
The corresponding values for `COc1cccc(CCNC(=O)[C@@H]2CC(=O)N(C)[C@@H](CC(C)C)C(=O)N(C)C3(CC3)C(=O)N[C@H](Cc3ccccc3)COc3nc4ccccn4c3C(=O)N2)c1` [Example 442, (3′R,9′S,13′S)-3′-benzyl-9′-isobutyl-N-(3-methoxyphenethyl)-7′,10′-dimethyl-5′,8′,11′,15′-tetraoxo-2′,3′,4′,5′,8′,9′,10′,11′,12′,13′,14′,15′-dodecahydro-7′H-spiro[cyclopropane-1,6′-pyrido[2′,11:2,3]imidazo[4,5-p][1]oxa[4,7,10,14]tetraazacycloheptadecine]-13′-carboxamide] are 443 nM and 154%.
For `Cc1cc(CCNC(=O)[C@@H]2CC(=O)N(C)[C@@H](CC(C)C)C(=O)N3CCCC[C@@H]3C(=O)N[C@H](Cc3ccccc3)COc3cnc4c(F)cccc4c3C(=O)N2)on1` [Example 443, (9S,13S,19aR,22R)-22-benzyl-3-fluoro-13-isobutyl-12-methyl-N-(2-(3-methylisoxazol-5-yl)ethyl)-7,11,14,20-tetraoxo-7,8,9,10,11,12,13,14,17,18,19,19a,20,21,22,23-hexadecahydro-16H-pyrido[2′,1′:6,7][1]oxa[4,7,10,14]tetraazacycloheptadecino[17,16-c]quinoline-9-carboxamide], the concentration for a half-maximal effect (EC50) stood at 316 nM and the Emax was determined as 275%.
On the same counts, the results for `Cc1cc(CCNC(=O)[C@@H]2CC(=O)N(C)[C@@H](CC(C)C)C(=O)N3CCCC[C@@H]3C(=O)N[C@H](Cc3ccccc3)COc3ccnc(C)c3C(=O)N2)on1` [Example 444, (7S,11S,17aR,20R)-20-benzyl-11-isobutyl-4,10-dimethyl-N-(2-(3-methylisoxazol-5-yl)ethyl)-5,9,12,18-tetraoxo-5,6,7,8,9,10,11,12,15,16,17,17a,18,19,20,21-hexadecahydro-14H-dipyrido[2,1-f:3′,4′-p][1]oxa[4,7,10,14]tetraazacycloheptadecine-7-carboxamide] are 1050 nM and 199%.
On the same counts, the results for `Cc1cc(CCNC(=O)[C@@H]2CC(=O)N(C)[C@@H](CC(C)C)C(=O)N(C[C@H]3CCCCO3)CC(=O)N[C@H](Cc3ccccc3)COc3cnc4ccccc4c3C(=O)N2)on1` [Example 445, (3S,7S,13R)-13-benzyl-7-isobutyl-6-methyl-N-(2-(3-methylisoxazol-5-yl)ethyl)-1,5,8,11-tetraoxo-9-(((R)-tetrahydro-2H-pyran-2-yl)methyl)-1,2,3,4,5,6,7,8,9,10,11,12,13,14-tetradecahydro-[1]oxa[4,7,10,14]tetraazacycloheptadecino[17,16-c]quinoline-3-carboxamide] are 958 nM and 194%.
On the same counts, the results for `Cc1cc(CCNC(=O)[C@@H]2CC(=O)N(C)[C@@H](CC(C)C)C(=O)N(CC[C@@H]3CCCCO3)CC(=O)N[C@H](Cc3ccccc3)COc3cnc4ccccc4c3C(=O)N2)on1` [Example 446, (3S,7S,13R)-13-benzyl-7-isobutyl-6-methyl-N-(2-(3-methylisoxazol-5-yl)ethyl)-1,5,8,11-tetraoxo-9-(2-((S)-tetrahydro-2H-pyran-2-yl)ethyl)-1,2,3,4,5,6,7,8,9,10,11,12,13,14-tetradecahydro-[1]oxa[4,7,10,14]tetraazacycloheptadecino[17,16-c]quinoline-3-carboxamide] are 900 nM and 248%.
On to `COc1cccc(CCNC(=O)[C@@H]2CC(=O)N(C)[C@@H](CC(C)C)C(=O)N(C)C3(CC3)C(=O)N[C@H](Cc3ccccc3)COc3ccc4c(c3C(=O)N2)OCC4)c1` [Example 447, (8R,14S,18S)-8-benzyl-14-isobutyl-N-(3-methoxyphenethyl)-12,15-dimethyl-10,13,16,20-tetraoxo-2,3,7,8,9,10,13,14,15,16,17,18,19,20-tetradecahydro-12H-spiro[benzofuro[7,6-p][1]oxa[4,7,10,14]tetraazacycloheptadecine-11,1′-cyclopropane]-18-carboxamide], for which the EC50 is 447 nM and the Emax was 220%.
The corresponding values for `Cc1cc(CCNC(=O)[C@@H]2CC(=O)N(C)[C@@H](CC(C)C)C(=O)N(C)C3(CC3)C(=O)N[C@H](Cc3ccccc3)COc3nc4ccccn4c3C(=O)N2)on1` [Example 448, (3′R,9′S,13′S)-3′-benzyl-9′-isobutyl-7′,10′-dimethyl-N-(2-(3-methylisoxazol-5-yl)ethyl)-5′,8′,11′,15′-tetraoxo-2′,3′,4′,5′,8′,9′,10′,11′,12′,13′,14′,15′-dodecahydro-7′H-spiro[cyclopropane-1,6′-pyrido[2′,11:2,3]imidazo[4,5-p][1]oxa[4,7,10,14]tetraazacycloheptadecine]-13′-carboxamide] are 961 nM and 109%.
The corresponding values for `COc1cccc(CCNC(=O)[C@@H]2CC(=O)N(C)[C@@H](CC(C)C)C(=O)N(C)CC(=O)N[C@H](Cc3ccccc3)COc3nc4ccccn4c3C(=O)N2)c1` [Example 449, (3R,9S,13S)-3-benzyl-9-isobutyl-N-(3-methoxyphenethyl)-7,10-dimethyl-5,8,11,15-tetraoxo-2,3,4,5,6,7,8,9,10,11,12,13,14,15-tetradecahydropyrido[2′,1′:2,3]imidazo[4,5-p][1]oxa[4,7,10,14]tetraazacycloheptadecine-13-carboxamide] are 543 nM and 165%.
Consider `COc1cccc(CCNC(=O)[C@@H]2CC(=O)N(C)[C@@H](CC(C)C)C(=O)N(C)CC(=O)N[C@H](Cc3ccccc3)COc3ccc4c(c3C(=O)N2)CCO4)c1` [Example 450, (3S,7S,13R)-13-benzyl-7-isobutyl-N-(3-methoxyphenethyl)-6,9-dimethyl-1,5,8,11-tetraoxo-1,2,3,4,5,6,7,8,9,10,11,12,13,14,19,20-hexadecahydrobenzofuro[4,5-p][1]oxa[4,7,10,14]tetraazacycloheptadecine-3-carboxamide], for which the EC50 came out at 379 nM and the Emax was 107%.

A word on the EC50: it is the concentration needed to bring the measured effect to its halfway point. The Emax is the maximal effect, on the per cent scale that the assay sets.
